This is an account of results in ChEMBL document CHEMBL3124911, “Chikungunya virus: emerging targets and new opportunities for medicinal chemistry” (J Med Chem, 2014).

For orientation: EC50 means the concentration at which the effect is half-maximal. A word on the IC50: it is the midpoint of a concentration-inhibition curve.

Data set [1] has as its system Chikungunya virus. Put plainly: Antiviral activity against Chikungunya virus. It is filed as functional.
The nature of data set [2]: Selectivity index, ratio of CC50 for African green monkey Vero cells to EC50 for Chikungunya virus. Type of data set: toxicity, cell-based. The following applies: read-out: Ratio CC50/EC50.
Data set [3] deals with Chikungunya virus. Put plainly: Antiviral activity against Chikungunya virus infected in African green monkey Vero cells assessed as inhibition of virus-induced cytopathic effect. Type of data set: functional, cell-based.
Data set [4] concerns Chikungunya virus. Put plainly: Antiviral activity against Chikungunya virus by cell-based assay. It is filed as functional.
In data set [5] the test system is Chikungunya virus. Kind of data set: Antiviral activity against Chikungunya virus infected in BHK21 cells assessed as inhibition of viral replication after 24 hrs. It is filed as functional, cell-based. The following applies: BHK-21, 24 h.
Data set [6] is described as follows: Inhibition of Chikungunya virus IMPDH.

The structures appear in SMILES notation. ≈ marks a conversion by molar mass, not a printed value.

Compound `C=C(C)[C@@]1(O)[C@@H]2OC3(c4ccccc4)O[C@H]1[C@@H](C)[C@]1(O3)C3=CC(=C(Cl)Cl)[C@H](OC(=O)c4ccccc4)[C@@]3(O)[C@H](OC(C)=O)[C@@]3(COC(C)=O)O[C@H]3[C@@H]21` had an EC50 in the data set on Chikungunya virus [1] of 1.5 µM.
`CCOc1ccc(/C=N/NC(=O)/C=C/c2ccc(C(C)(C)C)cc2)cc1OCC`: the selectivity ratio in data set [2] was found to be 32. For the same compound, the EC50 in the data set with Chikungunya virus [3] is 3.2 µM.
As for `CCOc1ccc(/C=N/NC(=O)C2CC2c2ccc(C(C)(C)C)cc2)cc1OCC` (stereo unspecified), in data set [2], the selectivity ratio was determined as 14. In the data set on Chikungunya virus [3], the EC50 came out at 5 µM.
`CCOC(=O)c1c(CSc2ccccc2)n(C)c2cc(Br)c(O)c(CN(C)C)c12` [UMIFENOVIR]: the IC50 in the data set on Chikungunya virus [4] stood at 12.2 µM.
Compound `CCN(CC)CCCC(C)Nc1ccnc2cc(Cl)ccc12` (stereo unspecified) [CHLOROQUINE] displayed an IC50 in the data set on Chikungunya virus [1] of 1.1 µg/mL (≈ 3.44 µM).
In the data set with Chikungunya virus [1], `NC(=O)c1ncn([C@@H]2O[C@H](CO)[C@@H](O)[C@H]2O)n1` [RIBAVIRIN] gave an EC50 of 83.3 µg/mL.
For `C=C[C@H]1CN2CC[C@H]1C[C@H]2[C@H](O)c1ccnc2ccc(OC)cc12` [QUININE], the IC50 with Chikungunya virus [1] is 0.1 µg/mL (≈ 0.308 µM).
Turning to `CCOC(=O)c1c(C[S+]([O-])c2ccccc2)n(C)c2cc(Br)c(O)c(CN(C)C)c12` (stereo unspecified), the IC50 with Chikungunya virus [4] came out at 54.5 µM.
Turning to `COC(=O)C[C@](O)(CCC(C)(C)O)C(=O)O[C@@H]1C(OC)=C[C@]23CCCN2CCc2cc4c(cc2[C@H]13)OCO4` [HARRINGTONINE], the EC50 in the data set with Chikungunya virus [5] came out at 0.24 µM.
`COc1c(C)c2c(c(O)c1C/C=C(\C)CCC(=O)O)C(=O)OC2` [MYCOPHENOLIC ACID]: the IC50 in data set [6] is 0.2 µM.
For the compound `O=c1cnn([C@@H]2O[C@H](CO)[C@@H](O)[C@H]2O)c(=O)[nH]1` [6-AZAURIDINE], it took 0.2 µg/mL to reach a half-maximal effect with Chikungunya virus [1] (EC50).
For `CCOC(=O)c1c(CS(=O)(=O)c2ccccc2)n(C)c2cc(Br)c(O)c(CN(C)C)c12`, in the data set with Chikungunya virus [4], the IC50 amounted to 56.4 µM.
For the compound `CC1(C)CC[C@]2(C)CC[C@]3(C)C(=CC[C@@H]4[C@@]5(C)CCC(=O)C(C)(C)[C@@H]5CC[C@]43C)[C@@H]2C1`, in the data set on Chikungunya virus [4], the EC50 came to 86 µM.
With `C=C(C)[C@@H]1CC[C@]2(C)CC[C@]3(C)[C@H](CC[C@@H]4[C@@]5(C)CCC(=O)C(C)(C)[C@@H]5CC[C@]43C)[C@@H]12` [LUPENONE], the EC50 with Chikungunya virus [4] worked out at 77 µM.
